Measurements from patent US20170202854A1, “Method for Treatment of Primary Hormone Resistant Endometrial and Breast Cancers” (Lipoxen Technologies Limited, priority 2014, published 2017).
Where two headings read alike, the source gives them in different places.

Legend:
[1] = system: secondary PR negative Ishikawa cells; assay: Model of secondary PR-negative endometrial cancer (progestin-resistant Ishikawa xenograft); assay type: in vivo, MF-1 female nude mice; details: MPA 250 mg/kg/day i.p. 5 days per week, SC 0.3 mg/kg i.m. each alternate day
Procedure: to obtain the secondary progestin-resistant subclones of human endometrial cancer cells, initially progestin sensitive PR-positive effect parent Ishikawa cells were routinely cultured in DMEM/F12 medium supplemented with 5% fetal bovine serum and medroxyprogesterone acetate (MPA) with 2.5 μM increases in MPA concentration (1.0-10 μM) every 4 weeks at 37° C. in a humidified atmosphere of 5% CO2. When the surviving cells had grown to a high density but were still less than confluent, cells were subcloned using 0.02% EDTA and 0.25% trypsin prepared in Hanks' balanced salt solution. MPA-containing medium was replaced every 2-3 days. Cells proliferating in 10 μM MPA with the same doubling time as the initial Ishikawa cells proliferating in the medium without MPA, were considered as secondary progestin-resistant Ishikawa cells. […] 2×10^6 secondary PR negative Ishikawa cells were inoculated into the flanks of MF-1 female nude mice in 100 μl Matrigel.
1) Vehicle control group: vehicle only, −0.9% sodium chloride for injection i.m each alternate day and i.p. for 5 days per week. 2) MPA only control group: medroxyprogesterone acetate (MPA) (250 mg/kg/day) i.p. for 5 days per week.
Tumors were measured with vernier calipers weekly. Tumor volumes (mm^3) were calculated using the modified ellipsoid formula: (length (mm)×width (mm)^2)/2. The ratio (percentage) of “Tumor volume at day n” to “tumor volume at day “0” was calculated for each animal. At the end of the experiments (day 35) animals were euthanized.

[2] = system: human primary PR-negative endometrial cancer cells HEC-1B; assay: Mouse model of primary PR-negative endometrial cancer (HEC-1B xenograft); assay type: in vivo, BNX nu/nu mice; details: mean±SD of 20 tumors, MA 10 mg/day i.p. 5 days/week, SC 0.3 mg/kg i.m. each alternate day
Procedure: Treatment was started on the next day after the injection and discontinued after 5 weeks. Cohorts (10 mice/group) received either:
1) Vehicle control group: vehicle only, 0.9% sodium chloride for injection i.m each alternate day and i.p. for 5 days/week. 2) MA only control group: megestrol acetate (MA) (10 mg/day) i.p. for 5 days/week.
Tumors were measured every week with vernier calipers. Tumor size was calculated using the formula: A (length)×B (width)×C (height)×0.5236.

MDA-MB-468 tumor cells = details: day 21, alone or with SC 6 mg/mouse i.m. twice a week
Procedure: The MDA-MB-468 (ATCC collection number ATCC® HTB-132, Neve et al., Cancer Cell 2006, 10:515-527) tumor cells (the xenograft of human primary ER-negative breast cancer) were maintained in vitro as a monolayer culture in L-15 medium supplemented with 10% heat inactivated fetal bovine serum, 100 U/ml penicillin and 100 μg/ml streptomycin, and L-glutamine (2 mM) at 37° C. in an atmosphere of 5% CO2 in air. The tumor cells were routinely subcultured twice weekly by trypsin-EDTA treatment. The cells growing in an exponential growth phase were harvested and counted for tumor inoculation.
BALB/c nude (Shanghai Sino-British SIPPR/BK Laboratory Animal Co., Ltd.), 6-8 weeks old female mice were inoculated subcutaneously at the right flank with MDA-MB-468 tumor cells (1×10^7) in 0.2 ml of PBS supplemented with BD Matrigel (1:1) for tumor development. The treatments were started on day 17 after tumor inoculation when the average tumor size reached approximately 170 mm^3. […] Each group consisted of 8 tumor-bearing mice.
Tumor size was measured twice weekly in two dimensions using a caliper, and the volume was expressed in mm3 using the formula: V=0.5 a×b2 where a and b are the long and short diameters of the tumor, respectively.
Significance level was assumed as 0.05.

[3] = TAM 50 mg/kg oral gavage every day
[4] = TAM 100 mg/kg oral gavage every day

CC(=O)O[C@]1(C(C)=O)CC[C@H]2[C@@H]3C[C@H](C)C4=CC(=O)CC[C@]4(C)[C@H]3CC[C@@]21C [MPA, medroxyprogesterone acetate]
Tumor volume at day n/tumor volume at day "0", %, mean ± SEM ([1]; Day 7): 170 ± 19% | Tumor volume at day n/tumor volume at day "0", %, mean ± SEM ([1]; Day 14): 412 ± 36% | Tumor volume at day n/tumor volume at day "0", %, mean ± SEM ([1]; Day 21): 512 ± 66% | Tumor volume at day n/tumor volume at day "0", %, mean ± SEM ([1]; Day 28): 822 ± 89% | Tumor volume at day n/tumor volume at day "0", %, mean ± SEM ([1]; Day 35): 1224 ± 99%

CC(=O)O[C@]1(C(C)=O)CC[C@H]2[C@@H]3C=C(C)C4=CC(=O)CC[C@]4(C)[C@H]3CC[C@@]21C [MA, megestrol acetate]
Tumor volume ([2]; Week 1): 58 ± 16 mm^3 | Tumor volume ([2]; Week 2): 177 ± 19 mm^3 | Tumor volume ([2]; Week 3): 510 ± 66 mm^3 | Tumor volume ([2]; Week 4): 794 ± 111 mm^3 | Tumor volume ([2]; Week 5): 1383 ± 151 mm^3

CC/C(=C(\c1ccccc1)c1ccc(OCCN(C)C)cc1)c1ccccc1 [TAM, Tamoxifen]
TGI (MDA-MB-468 tumor cells; [3]): −65% | Tumor volume (MDA-MB-468 tumor cells; [3]): 473 ± 59 mm^3 | TGI (MDA-MB-468 tumor cells; [4]): −1% | Tumor volume (MDA-MB-468 tumor cells; [4]): 355 ± 25 mm^3
